Reference: USRE40050E1, “Method for cleaning and/or disinfecting food processing equipment” (priority 1999, dated 2008)

Columns and labels:
Bacillus cerus = assay: Suspension test, percent microbes killed by CIP composition; assay type: cell-based; conditions: suspension 8.5 log bacteria/mL, 50 ppm CaCO3
Method: (§1) American Type Culture Collection cultures were transferred daily and maintained on agar slants containing the appropriate growth medium^1. A loopful of the culture was transferred into 10 ml of Butterfield's phosphate buffer pH 7.2 (NutraMax Products, Inc.) and agitated to obtain a homogeneous turbid suspension. The actual concentration of microbes in suspension was estimated by its serial dilution in Butterfield's phosphate buffer and subsequent transfer of 0.1 ml of the dilution series into a Petri plate containing the appropriate agar growth medium. The inoculated Petri plates were incubated for 48-72 hours (at about 37° C.) and the resulting colonies counted with a Quebec colony counter. The number of colonies on the Petri plates multiplied by the serial dilution factor is equal to the number of microbes in 0.1 ml of inoculum.
(§2) Suspension test: 1 ml of each microbial suspension was mixed with 9 ml of each CIP composition containing 50 ppm CaCO3 at 10/9 of the recommended use concentration (RUC) so that final concentration was exact RUC. After contact times described above, 1 ml of the mixture was put to 9 ml of neutralizer^2 from which 0.1 ml of sample was plated onto the appropriate agar and incubated at 28° C. for 48-72 hours before counting. The number of colonies present on the Petri plates multiplied by the serial dilution factor is equal to the number of microbes in 0.1 ml that survived in the sanitizer solution.
(§3) The per cent microbes killed by CIP composition is calculated by using the following equation: […]
(§4) One (1) mL of suspension and 9.0 mL of CIP composition were combined, resulting in the above data. The pH of the chlorine dioxide CIP composition was 5.8, the mixed halogen is sold by DiverseyLever under the name of Divosan MH and the peroxyacetic acid was an aqueous solution having about 65% water.

Byssochlamys nivea = assay: as above; assay type: cell-based; conditions: suspension 8.1 log bacteria/mL, 50 ppm CaCO3
Method: as §1, §2, §3, §4

Candida Albicans = assay: as above; assay type: cell-based; conditions: suspension 8.0 log bacteria/mL, 50 ppm CaCO3
Method: as §1, §2, §3, §4

Lactobacillus brevis = assay: as above; assay type: cell-based; conditions: suspension 8.2 log bacteria/mL, 50 ppm CaCO3
Method: as §1, §2, §3, §4

Rhizopus stolonifer = assay: as above; assay type: cell-based; conditions: suspension 7.5 log bacteria/mL, 50 ppm CaCO3
Method: as §1, §2, §3, §4

Zygosaccharomyces bailii = assay: as above; assay type: cell-based; conditions: suspension 8.5 log bacteria/mL, 50 ppm CaCO3
Method: as §1, §2, §3, §4

[1] = root beer, buffered pH about 11, integrated absorbance 440 to 700 nm vs control without CIP composition; ppm of active as per example
Method: For each of the five (5) experiments below, two quartz UV cells having a path length of 5.0 cm were each charged with 5.95 mL of a 0.1 molar sodium phosphate solution (to establish a buffered pH of about 11). The first cell was further charged with 0.6 mL of neat (conventional) root beer, as made commercially available. The second cell was further charged with 0.6 mL deionized water. Using the contents of the second cell as the blank, the absorbance of the resulting root beer solution was determined over the range of 440 to 700 nm, using a Hewlett-Packard 8452 UV/vis spectrophotometer. The absorbance over this wavelength range was integrated, and the percent (%) reduction in color of root beer was based on a comparison to the integrated absorbance of the control to which no CIP composition has been added.

| SMILES | percent bacteria killed, Bacillus cerus (Bacillus cerus; contact 2 minutes) [%] | percent bacteria killed, Byssochlamys nivea (Byssochlamys nivea; contact 30 seconds) | percent bacteria killed, Byssochlamys nivea (Byssochlamys nivea; contact 2 minutes) | percent bacteria killed, Candida Albicans (Candida Albicans; contact 2 minutes) | percent bacteria killed, Lactobacillus brevis (Lactobacillus brevis; contact 2 minutes) [%] | percent bacteria killed, Rhizopus stolonifer (Rhizopus stolonifer; contact 30 seconds) | percent bacteria killed, Rhizopus stolonifer (Rhizopus stolonifer; contact 2 minutes) [%] | percent bacteria killed, Zygosaccharomyces bailii (Zygosaccharomyces bailii; contact 2 minutes) [%] | percent bacteria killed, Bacillus cerus (Bacillus cerus; contact 30 seconds) [%] | percent bacteria killed, Candida Albicans (Candida Albicans; contact 30 seconds) | percent bacteria killed, Lactobacillus brevis (Lactobacillus brevis; contact 30 seconds) [%] | percent bacteria killed, Zygosaccharomyces bailii (Zygosaccharomyces bailii; contact 30 seconds) | % Reduction of Color [1] [%] |
| --- | --- | --- | --- | --- | --- | --- | --- | --- | --- | --- | --- | --- | --- |
| [O][Cl+][O-] [Example 7, chlorine dioxide] | ~99.9999 | About 99.99% | ~99.9999% | About 99.9999% | ~99.9999 | About 99.99% | ~99.9999 | ~99.9999 |  |  |  |  |  |
| CC(=O)OO [Example 9, Peroxyacetic acid] | ~99.9999 | About 99.9% | About 99.99% | About 99.9999% | ~99.9999 | <99% | <99 | ~99.9999 | ~99.99 | About 99.99% | ~99.9999 | About 99.99% |  |
| CC(=O)OO [Example 6, peroxyacetic acid] |  |  |  |  |  |  |  |  |  |  |  |  | 25.76 |
| [Na+].[O-]Cl [Example 4, sodium hypochlorite] |  |  |  |  |  |  |  |  |  |  |  |  | 36.49 |
| [O][Cl+][O-] [Example 3, chlorine dioxide] |  |  |  |  |  |  |  |  |  |  |  |  | 56.09 |
